The values below come from patent US10266510B2, “Antimicrobial and cytotoxic compounds and methods for treating cancer, a bacterial infection, and/or a fungal infection” (King Abdulaziz University, priority 2017, dated 2019).

Values after ≈ are worked out from the molar mass of the structure shown.

What all share (type): cell-based
Data set [1] relates to HCT116 (colon cancer cell line). The experiment in a line: Tumor cell growth assay (sulforhodamine B), HCT116. The conditions noted are these: for Inhibitory effect on in vitro growth (in words): 48 h exposure; for Remarks (% at 100 ppm): 48 h; for LC90: death of 90% of cells in 48 hrs. The text has this: (§1) Reagents: Fetal bovine serum (FBS) and L-glutamine were purchased from Gibco Invitrogen Co. (Scotland, UK). RPMI-1640 medium was from Cambrex (New Jersey, USA). Dimethyl sulfoxide (DMSO), doxorubicin, penicillin, streptomycin and sulforhodamine B (SRB) were from Sigma Chemical Co. (Saint Louis, USA).
(§2) Cell cultures: Three human tumor cell lines, HCT116 (colon cell line), HePG 2 (human hepatocellular carcinoma cell line), and MCF7 (human breast adenocarcinoma) were used. In vitro bioassay on human tumor cell lines were conducted and determined by the Bioassay-Cell Culture Laboratory, National Research Centre, El-Tahrir St., Dokki, Cairo 12622, Egypt. They grew as a monolayer and are routinely maintained in RPMI-1640 medium supplemented with 5% heat-inactivated FBS, 2 mM glutamine and antibiotics (penicillin 100 U/mL, streptomycin 100 μg/mL), at 37° C. in a humidified atmosphere containing 5% CO2. Exponentially growing cells were obtained by plating 1.5×10^5 cells/mL for MCF-7 and HCT116 and 0.75×10^4 cells/mL for HePG2, followed by 24 h of incubation. The effect of the vehicle solvent (DMSO) on the growth of these cell lines was evaluated in all experiments by exposing untreated control cells to the maximum concentration (0.5%) of DMSO used in each assay.
(§3) Tumor cell growth assay: The effect on the in vitro growth of human tumor cell lines was evaluated according to the procedure adopted by the National Cancer Institute (NCI, USA) in the ‘In vitro Anticancer Drug Discovery Screen’ that uses the protein-binding dye sulforhodamine B to assess cell growth. Briefly, cells growing in 96-well plates were then exposed for 48 h to five serial concentrations of each compound, starting from a maximum concentration of 78 μM (P. Skehan, R. Storeng, D. Scudiero, A. Monks, J. McMahon, D. Vistica, J. T. Warren, H. Bokesch, S. Kenney, M. R. Boyd, J. Natl. Cancer Inst., 82, 1107 (1990), incorporated herein by reference in its entirety). Following this exposure period adherent cells were fixed, washed, and stained. The bound stain was solubilized and the absorbance was measured at 492 nm in a plate reader (Bio-Tek Instruments Inc., Power wave XS, Wincoski, USA). For each test compound and cell line, a dose-response curve was obtained and the growth inhibition of 50% (GI50), corresponding to the concentration of the compounds that inhibited 50% of the net cell growth, was calculated as described elsewhere (A. Monks, D. Scudiero, P. Skehan, R. Shoemaker, K. Paull, D. Vistica, C. Hose, J. Langley, P. Cronise, A. Vaigro-Wolff, M. Gray-Goodrich, H. Campbell, J. Mayo, M. J. Boyd, Natl. Cancer Inst., 83, 757 (1991), incorporated herein by reference in its entirety). Doxorubicin was used as a positive control and tested in the same manner.

Data set [2] deals with HePG 2 (human hepatocellular cancer cell line). Kind of data set: Tumor cell growth assay (sulforhodamine B), HePG 2. The conditions noted are these: for Inhibitory effect on in vitro growth (in words): 48 h exposure; for Remarks (% at 100 ppm): 48 h.
From the text: as §1, §2, §3

Data set [3] deals with MCF7 (human breast cancer cell line). The experiment in a line: Tumor cell growth assay (sulforhodamine B), MCF7. Particulars: for Inhibitory effect on in vitro growth (in words): 48 h exposure; for Remarks (% at 100 ppm): 48 h; for LC90: death of 90% of cells in 48 hrs.
From the text: as §1, §2, §3

Data set [4] deals with Aspergillus flavus ATCC 16883. The experiment in a line: MIC by agar well diffusion method. Particulars: 25° C., 48 h, dilutions 50 to 500 μg/mL; for MIC: Aspergillus flavus, ATCC16883. The text has this: (§4) The common pathogenic and food spoilage microorganisms were selected for their relevance in bakery products and other food: the gram-positive bacteria: Bacillus subtilits NRRL-B-4219, Staphylococcus aureus ATCC 6538, Enterococcus faecalis ATCC 19433; the gram negative bacteria: Escherichia coli ATCC 25922, Pseudomonas aeruginosa ATCC 9027, Proteus sp.; yeasts, such as Candida albicans ATCC 10231; and fungi: Aspergillus niger NRRL 2766 (equivalent to ATCC 16888), and Aspergillus flavus ATCC 16883. The bacteria were slanted on nutrient agar (Merck, Darmstadt, Germany), yeast was slanted and mentioned on Sabaroud's agar medium (Lab M., Bury, Lancashire, UK) and the fungi was slanted and mentioned on the potato Dextrose Agar medium (Lab M Limited, Bury, Lancashire, UK). Mueller-Hinton agar (Lab M., Bury, Lancashire, UK) following the manufacturer's instructions was used for the assay. The in vitro minimum inhibitory concentration (MIC) of the synthesized compounds was determined by the agar well diffusion method. DMSO was used to prepare different concentrations ranging from 50 to 500 μg/mL by serial dilutions. The media were inoculated with 100 μL of each of the 10^6 cfu/mL bacterial and fungal strains, and the assay was applied by an agar well diffusion method. Blank DMSO was used as negative control. The plates were incubated aerobically in an incubator at 37° C. for 24 h for bacterial strains and 25° C. for 48 h for fungal strains. The MIC was taken as the lowest concentration in the series dilution that prevented bacterial growth.
(In general: A growth-free zone around the sample is the usual read-out of agar diffusion tests.)

In data set [5] the test system is Aspergillus niger NRRL 2766. Kind of data set: MIC by agar well diffusion method. The conditions noted are these: 25° C., 48 h, dilutions 50 to 500 μg/mL; for MIC: Aspergillus niger, NRRL2766.
From the text: as §4

The subject of data set [6] is Bacillus subtilits NRRL-B-4219. Kind of data set: MIC by agar well diffusion method. Particulars: 37° C., 24 h, dilutions 50 to 500 μg/mL; for MIC: Bacillus, NRRLB4219.
From the text: as §4

For data set [7], the system named is Candida albicans ATCC 10231. Kind of data set: MIC by agar well diffusion method. Particulars: 25° C., 48 h, dilutions 50 to 500 μg/mL; for MIC: Candida albicans, ATCC10231.
From the text: as §4

For data set [8], the system named is Enterococcus faecalis ATCC 19433. Kind of data set: MIC by agar well diffusion method. The conditions noted are these: 37° C., 24 h, dilutions 50 to 500 μg/mL; for MIC: Enterococcus faecalis, ATCC19433, read-out: MIC, Ent. faecalis.
From the text: as §4

In data set [9] the test system is Escherichia coli ATCC 25922. Kind of data set: MIC by agar well diffusion method. Particulars: 37° C., 24 h, dilutions 50 to 500 μg/mL; for MIC: Escherichia coli, ATCC25922.
From the text: as §4

The subject of another data set is Proteus sp. The experiment in a line: MIC by agar well diffusion method. The conditions noted are these: 37° C., 24 h; dilutions 50 to 500 μg/mL.
From the text: as §4

For data set [10], the system named is Pseudomonas aeruginosa ATCC 9027. Kind of data set: MIC by agar well diffusion method. Particulars: 37° C., 24 h, dilutions 50 to 500 μg/mL; for MIC: Pseudomonas aeruginosa, ATCC9027, read-out: MIC, P. aeruginosa.
From the text: as §4

The test system of data set [11] is Staphylococcus aureus ATCC 6538. Kind of data set: MIC by agar well diffusion method. Particulars: 37° C., 24 h, dilutions 50 to 500 μg/mL; for MIC: Staphylococcus aureus, ATCC6538, read-out: MIC, S. aureus.
From the text: as §4

With `CCOC1Oc2ccccc2C(=O)C1=NNc1ccc(Cl)cc1` (stereo not drawn) [Compound 6c, 3-[(4-Chlorophenyl)hydrazono]-2-ethoxychroman-4-one], the “Inhibitory effect on in vitro growth (in words)” value (“Inhibitory effect” below) in [1], in [2] and in data set [3] was “highest inhibitory effect” throughout. In data set [1] (Homo sapiens, HCT-116, death of 50% of cells in 48 hrs, read-out: LC50 (the source's name)), the CC50 turned out to be 13.2 µg/mL (≈ 39.9 µM). For the same compound, the “Remarks (% at 100 ppm)” value is given as 100% at 100 ppm in [1], 94.2% at 100 ppm in data set [2] and 100% at 100 ppm in [3]. The LC90 in data set [1] was 23.1 µg/mL (≈ 69.8 µM); in data set [2] (death of 90% of cells in 48 hrs) it was 68.9 µg/mL (≈ 208 µM); in [3], 27.0 µg/mL (≈ 81.6 µM). The LC50 (concentration killing 50% of cells) was 39 µg/mL in data set [2] (Homo sapiens, HepG2, death of 50% of cells in 48 hrs) and 15.8 µg/mL in data set [3] (Homo sapiens, death of 50% of cells in 48 hrs). Further, the minimal inhibitory concentration (MIC) (in general, the least concentration at which growth counts as inhibited) in [4] was found to be 200 µg/mL (≈ 605 µM); in data set [5], 100 µg/mL (≈ 302 µM); in data set [6], 75 µg/mL (≈ 227 µM); in [7], 50 µg/mL (≈ 151 µM); in data set [8] it was 200 µg/mL (≈ 605 µM); in [9] it was 50 µg/mL (≈ 151 µM). For the same compound, the minimum inhibitory concentration (MIC) (in the data set with Proteus sp.; in [10]; in [11]) was 150 µg/mL (≈ 453 µM) in each case.
Turning to “Ethoxy-3-[(4-nitro-phenyl)-hydrazono]-chroman-one [Compound 6a]”, in data set [1], the “Inhibitory effect” value was “highest inhibitory effect”, the “Remarks (% at 100 ppm)” value is listed as 65.3% at 100 ppm and the LC90 is 123.3 µg/mL. In [2], the “Inhibitory effect” value was “highest inhibitory effect” and the “Remarks (% at 100 ppm)” value is recorded as 45.3% at 100 ppm. In addition, in data set [3], the “Inhibitory effect” value is reported as “highest inhibitory effect”, the “Remarks (% at 100 ppm)” value was found to be 61.3% at 100 ppm and the LC90 came to 124.1 µg/mL. In addition, the LC50 (as a rule, the concentration lethal to half of the exposed cells or organisms) in data set [3] (death of 50% of cells in 48 hrs) was determined as 76.3 µg/mL. Further, the “MIC, A. flavus” value in data set [4] was 250 µg/mL. Moreover, the “MIC, A. niger” value in data set [5] worked out at 200 µg/mL. Also, the “MIC, B. subtilits” value in data set [6] was determined as 150 µg/mL. Moreover, the “MIC, C. albicans” value in data set [7] stood at 250 µg/mL. Besides, the “MIC, Ent. faecalis” value in data set [8] was determined as 250 µg/mL. In addition, the “MIC, E. coli” value in data set [9] was determined as 100 µg/mL. Also, the “MIC, Proteus sp.” value in the data set on Proteus sp. worked out at 250 µg/mL. Moreover, the “MIC, P. aeruginosa” value in data set [10] was 300 µg/mL. Further, in [11], the “MIC, S. aureus” value stood at 350 µg/mL.
For the compound `CCOC1Oc2ccccc2C(=O)C1=NNc1ccccc1OC` (stereo not drawn) [Compound 6b, 2-ethoxy-3-(2-(2-methoxyphenyl)hydrazono)chroman-4-one], the “Remarks (% at 100 ppm)” value came to 39.6% at 100 ppm in data set [1], 56.1% at 100 ppm in [2] and 22.9% at 100 ppm in [3]. Also, the minimum inhibitory concentration (MIC) in data set [4] was found to be 350 µg/mL (≈ 1070 µM); in [5], 300 µg/mL (≈ 919 µM); in [6], 200 µg/mL (≈ 613 µM); in data set [7], 400 µg/mL (≈ 1230 µM); in data set [8] it was 450 µg/mL (≈ 1380 µM); in data set [9], 250 µg/mL (≈ 766 µM). The results for the minimum inhibitory concentration (MIC) (with Proteus sp.; in data set [10]; in data set [11]) were 350 µg/mL (≈ 1070 µM), 400 µg/mL (≈ 1230 µM) and 300 µg/mL (≈ 919 µM), respectively.
